The text below walks through data of publication PMC9861757, “New Insights into Conformationally Restricted Carbonic Anhydrase Inhibitors” (Molecules, 2023).

Experiment [1] has as its target T1, human CA I (Homo sapiens, UniProt P00915). The experiment is described as follows: stopped-flow CO2 hydrase assay, CA I inhibition. Conditions: for loss of CA I inhibition potency relative to 3a: comparator 3a; for inhibition of CA I (in words): qualitative statement.
Protocol: (§1) An Applied Photophysics stopped-flow instrument was used to assay the CA catalyzed CO2 hydration activity [14]. […] The uncatalyzed rates were determined in the same manner and subtracted from the total observed rates. Stock solutions of the inhibitor (0.1 mM) were prepared in distilled–deionized water and dilutions up to 0.01 nM were done thereafter with the assay buffer. Inhibitor and enzyme solutions were preincubated together for 15 min at room temperature prior to the assay to allow for the formation of the E–I complex. The inhibition constants were obtained by non-linear least-squares methods using PRISM 3 and the Cheng–Prusoff equation, as reported earlier, and represent the mean from at least three different determinations. All CA isoforms were recombinant proteins obtained in house, as reported earlier [1, 12, 13].
The target of experiment [2] is T2, human CA II (Homo sapiens, UniProt P00918). The experiment is described as follows: stopped-flow CO2 hydrase assay, CA II inhibition.
Protocol: as §1
Experiment [3] deals with T3, human CA IX (Homo sapiens, UniProt Q16790). The experiment is described as follows: stopped-flow CO2 hydrase assay, CA IX inhibition. Conditions: for SI (IX/II): ratio KI CA IX / KI CA II.
Protocol: as §1
Experiment [4] concerns the target T4, human CA XII (Homo sapiens, UniProt O43570). The experiment is described as follows: stopped-flow CO2 hydrase assay, CA XII inhibition.
Protocol: as §1
The target in experiment [5] is T1, human CA I. Also noted: made in house; method as in PMID 31076951. Conditions: stopped-flow CO2 hydrase assay; compound marked with a reference in Table 1; cited from earlier work.
Experiment [6] addresses T2, human CA II. Also noted: made in house; method as in PMID 31076951. Conditions: stopped-flow CO2 hydrase assay; compound marked with a reference in Table 1; cited from earlier work.
Experiment [7] addresses T3, human CA IX. Also noted: made in house; method as in PMID 31076951. Conditions: stopped-flow CO2 hydrase assay; compound marked with a reference in Table 1; cited from earlier work.
In experiment [8] the target is T4, human CA XII. Details: made in house; method as in PMID 31076951. Conditions: stopped-flow CO2 hydrase assay; compound marked with a reference in Table 1; cited from earlier work.

Read-outs that look alike come from different tables or passages of the source.

T1 sequence (P00915 whole entry): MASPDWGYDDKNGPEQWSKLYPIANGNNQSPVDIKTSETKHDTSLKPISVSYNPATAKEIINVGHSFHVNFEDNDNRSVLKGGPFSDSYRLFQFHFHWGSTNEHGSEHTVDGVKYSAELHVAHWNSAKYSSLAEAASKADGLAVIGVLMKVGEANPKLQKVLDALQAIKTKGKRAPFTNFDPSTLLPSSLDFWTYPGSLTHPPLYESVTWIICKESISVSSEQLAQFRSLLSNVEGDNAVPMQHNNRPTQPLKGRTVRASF
T4 sequence (O43570 25-354): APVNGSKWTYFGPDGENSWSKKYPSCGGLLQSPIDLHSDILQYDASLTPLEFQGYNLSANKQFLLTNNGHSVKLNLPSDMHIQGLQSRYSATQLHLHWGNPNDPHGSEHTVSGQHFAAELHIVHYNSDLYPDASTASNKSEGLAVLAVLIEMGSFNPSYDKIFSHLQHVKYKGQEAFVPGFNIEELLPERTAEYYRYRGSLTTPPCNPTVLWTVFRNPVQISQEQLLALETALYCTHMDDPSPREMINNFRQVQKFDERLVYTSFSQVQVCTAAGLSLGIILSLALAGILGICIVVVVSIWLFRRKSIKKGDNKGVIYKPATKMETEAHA

The term Ki denotes the equilibrium dissociation constant of an inhibitor or competing ligand from its target. `NS(=O)(=O)c1ccc(O)c(NC(=O)N2CCCC2)c1` [Compound 3a, N-(2-Hydroxy-5-sulfamoylphenyl)pyrrolidine-1-carboxamide]: the Ki at human CA I [1] amounted to 583 nM; on human CA II [2], 3180 nM; at human CA IX [3], 369 nM; at human CA XII [4] it was 91.3 nM. For the same compound, the “SI (IX/II)” value at human CA IX [3] is on record as 0.12. Also, the “more effective CA XII inhibitor than 3b” value at human CA XII [4] (CA XII, comparator 3b) was found to be 5.5 fold.
For the compound `NS(=O)(=O)c1ccc(O)c(NC(=O)N2CCCCC2)c1` [Compound 3b, N-(2-Hydroxy-5-sulfamoylphenyl)piperidine-1-carboxamide], the Ki amounted to 8650 nM on human CA I [1], 914 nM at human CA II [2], 308 nM at human CA IX [3] and 507 nM at human CA XII [4]. Further, the “loss of CA I inhibition potency relative to 3a” value at human CA I [1] (CA I) came to 14.8 fold. Also, on human CA II [2] (CA II, comparator 3a), the “more effective on CA II than 3a” value is 3.5 fold. Further, the “more effective on CA IX than 3a” value on human CA IX [3] (CA IX, comparator 3a) worked out at 1.2 fold. For the same compound, the “SI (IX/II)” value at human CA IX [3] came to 0.34.
Take `NS(=O)(=O)c1ccc(O)c(NC(=O)N2CCOCC2)c1` [Compound 3c, N-(2-Hydroxy-5-sulfamoylphenyl)morpholine-4-carboxamide]: the Ki on human CA I [1] amounted to 4000 nM; on human CA II [2], 8030 nM; on human CA IX [3], 140 nM; at human CA XII [4] it was 73.8 nM. In addition, the “loss of CA I inhibition potency relative to 3a” value at human CA I [1] (CA I) was 6.9 fold. Moreover, the “CA IX potency increase relative to 3b” value at human CA IX [3] (CA IX, comparator 3b) was 2.2 fold. In addition, the “SI (IX/II)” value on human CA IX [3] was 0.017.
For the compound `NS(=O)(=O)c1ccc(O)c(NC(=O)NCCN2CCCCC2)c1` [Compound 3d, 4-Hydroxy-3-(3-(2-(piperidin-1-yl)ethyl)ureido)benzenesulfonamide], the Ki on human CA I [1] was determined as 689 nM; on human CA II [2], 288 nM; on human CA IX [3], 4120 nM; on human CA XII [4], 659 nM. In addition, at human CA IX [3], the “SI (IX/II)” value amounted to 14.3.
With `NS(=O)(=O)c1ccc(O)c(NC(=O)NCCN2CCOCC2)c1` [Compound 3e, 4-Hydroxy-3-(3-(2-morpholinoethyl)ureido)benzenesulfonamide], the Ki at human CA I [1] is 9210 nM; at human CA II [2], 3000 nM; on human CA IX [3], 2140 nM; on human CA XII [4] it was 629 nM. The “decrease of CA I affinity relative to 3d” value on human CA I [1] (CA I, comparator 3d) is given as 13.4 fold. Besides, the “more potent CA IX inhibition compared to 3d” value on human CA IX [3] (CA IX, comparator 3d) stood at 1.9 fold. Further, the “SI (IX/II)” value on human CA IX [3] came to 0.71.
Regarding `CCN1CCN(C(=O)Nc2cc(S(N)(=O)=O)ccc2O)CC1` [Compound 3f, 4-Ethyl-N-(2-hydroxy-5-sulfamoylphenyl)piperazine-1-carboxamide], the Ki was 8990 nM at human CA I [1], 7740 nM at human CA II [2], 2150 nM on human CA IX [3] and 505 nM on human CA XII [4]. For the same compound, at human CA I [1] (CA I, comparator 3d), the “decrease of CA I affinity relative to 3d” value was found to be 13.1 fold. Moreover, on human CA IX [3], the “SI (IX/II)” value worked out at 0.28. At human CA XII [4] (CA XII, comparator 3d), the “more effective CA XII inhibitor than 3d” value is 1.3 fold.
For the compound `NS(=O)(=O)c1ccc(O)c(NC(=O)NCc2ccncc2)c1` [Compound 3g, 4-Hydroxy-3-(3-(pyridin-4-ylmethyl)ureido)benzenesulfonamide], the Ki is 89.5 nM on human CA I [5], 463 nM on human CA II [6], 0.3 nM on human CA IX [7] and 85.1 nM at human CA XII [8]. At human CA I [1] (CA I, comparator AAZ), the “more potent on CA I compared to AAZ” value is listed as “up to 2.8 fold”. In addition, the “SI (IX/II)” value at human CA IX [3] amounted to 0.0006.
Take `NS(=O)(=O)c1ccc(O)c(NC(=O)NCCc2ccccn2)c1` [Compound 3h, 4-Hydroxy-3-(3-(2-(pyridin-2-yl)ethyl)ureido)benzenesulfonamide]: the Ki on human CA I [5] is 571 nM; on human CA II [6] it was 331 nM; at human CA IX [7], 0.24 nM; at human CA XII [8] it was 65.9 nM. Moreover, at human CA I [1] (CA I, comparator 3d), the “CA I potency increase relative to 3d” value was determined as 1.2 fold. For the same compound, on human CA IX [3], the “SI (IX/II)” value came to 0.0007.
Take `NS(=O)(=O)c1ccc(O)c(NC(=O)N2CCN(CC(=O)NC3CCCCC3)CC2)c1` [Compound 3i, 4-(2-(Cyclohexylamino)-2-oxoethyl)-N-(2-hydroxy-5-sulfamoylphenyl)piperazine-1-carboxamide]: the Ki on human CA I [1] amounted to 698 nM; at human CA II [2], 405 nM; on human CA IX [3], 204 nM; at human CA XII [4], 33.7 nM. The “inhibition of CA I (in words)” value on human CA I [1] (CA I) is “did not result in appreciable inhibition”. For the same compound, at human CA IX [3], the “SI (IX/II)” value was 0.50.
In the case of `NS(=O)(=O)c1ccc(O)c(NC(=O)NCCCCO)c1` [Compound 3j, 4-Hydroxy-3-(3-(4-hydroxybutyl)ureido)benzenesulfonamide], the Ki is 280 nM on human CA II [6], 215 nM on human CA IX [7] and 47.1 nM on human CA XII [8]. Besides, the “inhibition of CA I (in words)” value on human CA I [1] (CA I) is “did not result in appreciable inhibition”. Moreover, the “SI (IX/II)” value on human CA IX [3] was 0.46.
Turning to `NS(=O)(=O)c1ccc(CCNC(=O)Nc2ccccc2O)cc1` [Compound 3k, 4-(2-(3-(2-Hydroxyphenyl)ureido)ethyl)benzenesulfonamide], the “inhibition of CA I (in words)” value at human CA I [1] (CA I) is listed as “did not result in appreciable inhibition”. For the same compound, the figures for the Ki at human CA II [2], on human CA IX [3] and at human CA XII [4] were 75.9 nM, 34.7 nM and 239 nM, respectively. The “less effective on CA II than AAZ” value at human CA II [2] (CA II, comparator AAZ) came out at 6.3 fold. Further, the “SI (IX/II)” value at human CA IX [3] was 0.77.
